This is an account of results in patent US4221781A, “Synergistic penicillin-cephalosporin compositions and methods” (priority 1971, dated 1980).

Where two headings read alike, the source gives them in different places. Some results are limits rather than exact numbers.

Assay [1] has as its system Coliform. The assay is described as follows: Example 4: in vitro M.I.C., serial dilution test, coliforms. The assay is classed as cell-based. On the procedure:
(§1) Tryptose phosphate broth, containing the appropriate concentrations of the compounds or of the combination of them, was inoculated with 0.5×10^4 -5×10^4 organisms of the various microorganisms tested and incubated overnight at 37° C. Minimum inhibitory concentrations (M.I.C.) were taken as the concentrations of the compounds or of the combination at which no visible growth occurred.

Assay [2] concerns Proteus. The assay is described as follows: Example 4: in vitro M.I.C., serial dilution test, Proteus. The assay is classed as cell-based. On the procedure: as §1
In assay [3] the test system is Klebsiella-Enterobacter. The assay is described as follows: Example 4: in vitro M.I.C., serial dilution test, Klebsiella-Enterobacter. The assay is classed as cell-based. As to the method: as §1
Assay [4] has as its system clinically isolated coliform bacterium. Put plainly: Example 5: in vitro M.I.C. of IV, various penicillins and 1:1 combinations. The assay is classed as cell-based. On the procedure:
as §1
Using the same technique as described in Example 1 the in vitro activity of 6[(piperidyl-1)-methyleneamino]-penicillianic acid (IV), of various penicillins, and of 1:1 combinations of IV with these penicillins, was determined against a clinically isolated coliform bacterium.

In assay [5] the test system is E.coli III. Put plainly: Example 6: emergence of resistance, subculturing by serial twofold broth dilution. The assay is classed as cell-based. As to conditions: Escherichia coli. As to the method:
Subculturing using a serial twofold broth dilution technique was performed with 6-(D-α-amino-phenylacetamido)-penicillanic acid (I), 6-[(piperidyl-1)methyleneamino]penicillanic acid (IV) and a 1:1 combination of I+IV. As inocula were used bacteria from the tube with the highest concentration of compound still permitting visible growth to the naked eye after incubation at 37° C. overnight. The following increases in MIC-values were noted.
(Dilution methods test growth across graded concentrations, often in twofold steps.)

For assay [6], the system named is Coliforma. Put plainly: Example 9: in vitro MIC, serial dilution test, Coliforma. The class given is cell-based. As to the method:
as §1
(§2) Using the technique described in Example 1 the in vitro effect of combinations of 6-(D-α-aminophenylacetamido)-penicillanic acid (I) and 6-[(N,N-diethylformamidino)-N'-amino]penicillanic acid (VII) in the ratios 1:1, 1:2 and 2:1 against clinically isolated strains of Coliforma, Klebsiella-Enterobacter and Proteus was determined in serial dilution tests.

For assay [7], the system named is Klebsiella-Enterobacter. Put plainly: Example 9: in vitro MIC, serial dilution test, Klebsiella-Enterobacter. The class given is cell-based. As to the method: as §1, §2
Assay [8] has as its system Proteus. Put plainly: Example 9: in vitro MIC, serial dilution test, Proteus. The assay is classed as cell-based. On the procedure:
as §1, §2

Assay [9] concerns Coliform. Put plainly: Example 1: in vitro M.I.C., serial dilution test, coliforms. The class given is cell-based. As to conditions: 37° C overnight. On the procedure:
as §1

The subject of assay [10] is Proteus mirabilis. Put plainly: Example 1: in vitro M.I.C., serial dilution test, Proteus mirabilis. The settings on record: Proteus mirabilis strain 35895; 37° C overnight. The class given is cell-based. On the procedure: as §1
For assay [11], the system named is Proteus vulgaris. Put plainly: Example 1: in vitro M.I.C., serial dilution test, Proteus vulgaris. The assay is classed as cell-based. As to the method:
as §1

Assay [12] relates to Proteus. Put plainly: Example 1: in vitro M.I.C., serial dilution test, Proteus. The assay is classed as cell-based. The settings on record: 37° C overnight. On the procedure:
as §1

The test system of assay [13] is E.coli III. Put plainly: Example 3: in vivo activity, mean curative dose in mice infected with E.coli III. Further details: species or system female NMRI white mice. The settings on record: Escherichia coli, sc, 96 h, subcutaneous, read-out: CD50 (mean curative dose). As to the method:
The number of deaths in the various groups were recorded after 96 hours and the mean curative doses (CD50) were calculated. (In the table, LD50 gives the dilution of an overnight culture of the organism causing a 50% death rate in animals receiving no therapy; the number of LD50 -doses records the severity of the infections given to the animals.)

The test system of assay [14] is clinically isolated coliform. The assay is described as follows: Example 7: emergence of resistance, subculturing by serial twofold broth dilution. The assay is classed as cell-based. As to the method:
Subculturing using a serial twofold broth dilution technique was performed with 6-(D-α-aminophenylacetamido)-penicillanic acid (I), 6-[(hexahydro-1H-azepin-1-yl)methyleneamino]penicillanic acid (II), and a 1:1 combination of I and II. The strain used was a clinically isolated coliform. As inocula were used bacteria from the tube with the highest concentration of compound still permitting visible growth to the naked eye after incubation at 37° C. overnight. The following increases in MIC values were noted.

Assay [15] has as its system Klebsiella-Enterobacter (strain 4/71). The assay is described as follows: Example 10: in vitro M.I.C. of II, cephalosporins and 1:1 combinations. The assay is classed as cell-based. As to conditions: Klebsiella-Enterobacter strain 4/71; read-out: M.I.C. As to the method: as §1
Using the same technique as described in Example 1 the in vitro activity of 6-[(hexahydro-1H-azepin-1-yl)methyleneamino]penicillanic acid (II), of various cephalosporins previously mentioned in this specification, and of 1:1 combinations of II with these cephalosporins was determined against a clinically isolated strain of Klebsiella-Enterobacter (strain 4/71)

The test system of assay [16] is Proteus (Proteus Mirabilis I 190). Put plainly: Example 11: in vitro M.I.C. of II, cephalosporins and 1:1 combinations. The class given is cell-based. As to conditions: Proteus Mirabilis I 190, read-out: M.I.C. On the procedure:
as §1
Using the same technique as described in Example 1 the in vitro activity of 6-[(hexahydro-1H-azepin-1-yl)methyleneamino]penicillanic acid (II), of various cephalosporins and of 1:1 combinations of II with these cephalosporins was determined against a clinically isolated strain of Proteus (Proteus Mirabilis I 190).

[17] abbreviates: Proteus strain 6/70, read-out: M.I.C.
The mark [18] stands for this setting: Klebsiella-Enterobacter strain 2/70, read-out: M.I.C.
The mark [19] stands for this setting: Klebsiella-Enterobacter strain 8, read-out: MIC.
[20] abbreviates: Proteus vulgaris A, 37° C overnight, read-out: M.I.C.
The mark [21] stands for this setting: LD50 1.5·10^-3, 6.6 LD50-doses given.
[22] abbreviates: LD50 8.1·10^-4, 1.2·10^4 LD50-doses given.

As for `CC1(C)S[C@@H]2[C@H](N=CN3CCCCC3)C(=O)N2[C@H]1C(=O)O` [IV, 6-[(piperidyl-1)-methyleneamino]penicillanic acid], the MIC turned out to be 1.56 µg/mL in [1] (Coliform strain 7/70); 1.56 µg/mL in assay [1] (Coliform strain 16/70); 1.56 µg/mL in [1] (Coliform strain 17/70); 25 µg/mL in [2] (Proteus strain 4/70, read-out: M.I.C.); 3.12 µg/mL in assay [2] (setting [17]); 50 µg/mL in assay [2] (Proteus strain 7/70, read-out: M.I.C.). Besides, the MIC in assay [2] (Proteus strain 9/70, read-out: M.I.C.) was 100 µg/mL; in [2] (Proteus strain 10/70, read-out: M.I.C.), 25 µg/mL; in assay [3] (Klebsiella-Enterobacter strain 1/70, read-out: M.I.C.), more than 100 µg/mL; in assay [3] (setting [18]), 12.5 µg/mL; in assay [3] (Klebsiella-Enterobacter strain 5/70, read-out: M.I.C.), more than 100 µg/mL; in assay [3] (Klebsiella-Enterobacter strain 7/70, read-out: M.I.C.) it was more than 100 µg/mL. Moreover, the MIC is 3.12 µg/mL in assay [3] (Klebsiella-Enterobacter strain 9/70, read-out: M.I.C.); more than 100 µg/mL in [3] (Klebsiella-Enterobacter strain 10/70, read-out: M.I.C.); more than 100 µg/mL in assay [3] (Klebsiella-Enterobacter strain 431, read-out: M.I.C.); 6.25 µg/mL in assay [4]; 0.78 µg/mL in [5] (passage 0); 6.25 µg/mL in assay [5] (passage 1). Besides, the MIC in assay [5] (passage 2) was 6.28 µg/mL; in assay [5] (passage 3), 25 µg/mL; in assay [5] (passage 4) it was 25 µg/mL; in assay [5] (passage 5) it was 25 µg/mL; in assay [5] (passage 6) it was 25 µg/mL.

For the compound `CCN(C=NC1C(=O)N2C1SC(C)(C)C2C(=O)O)CC` (centres unmarked) [VII, 6-[(N,N-diethylformamidino)-N'-amino]penicillanic acid], the MIC is 3.12 µg/mL in [6] (Coliforma strain 1); 3.12 µg/mL in [6] (Coliforma strain 4); 6.25 µg/mL in assay [6] (Coliforma strain 7); 6.25 µg/mL in [6] (Coliforma strain 16); more than 100 µg/mL in assay [7] (Klebsiella-Enterobacter strain 1, read-out: MIC); more than 100 µg/mL in assay [7] (Klebsiella-Enterobacter strain 5, read-out: MIC). Besides, the MIC in assay [7] (Klebsiella-Enterobacter strain 7, read-out: MIC) is more than 100 µg/mL; in assay [7] (setting [19]), 12.5 µg/mL; in assay [8] (Proteus strain 9, read-out: MIC), 100 µg/mL.

`CC1(C)S[C@@H]2[C@H](N=CN3CCCCCC3)C(=O)N2[C@H]1C(=O)O` [II, 6-[(hexahydro-1H-azepin-1-yl)methyleneamino]penicillanic acid]: the MIC in assay [9] (Coliform strain 3/70) is 12.5 µg/mL; in assay [9] (Coliform strain 17/70), 0.78 µg/mL; in assay [10] it was 0.78 µg/mL; in assay [11] (setting [20]) it was 0.19 µg/mL; in [11] (Proteus vulgaris B, 37° C overnight, read-out: M.I.C.) it was 1.56 µg/mL; in assay [12] (Proteus strain 12/70, read-out: M.I.C.), 3.12 µg/mL. Further, the MIC in assay [12] (Proteus strain 13/70, read-out: M.I.C.) is 3.12 µg/mL; in assay [12] (Proteus strain 20/70, read-out: M.I.C.), more than 100 µg/mL; in assay [14] (passage 0) it was 0.39 µg/mL; in [14] (passage 1) it was 6.25 µg/mL; in assay [14] (passage 2), 25 µg/mL; in assay [14] (passage 3) it was 25 µg/mL. The MIC in assay [14] (passage 4) was 25 µg/mL; in [14] (passage 5), 25 µg/mL; in assay [14] (passage 7), 25 µg/mL; in [14] (passage 8) it was 25 µg/mL; in assay [15], more than 100 µg/mL; in [16], more than 100 µg/mL. Besides, the ED50 in assay [13] (setting [21]) is 2 mg/kg; in assay [13] (setting [22]) it was more than 500 mg/kg.

Consider `CC1(C)S[C@@H]2[C@H](NC(=O)[C@H](N)c3ccccc3)C(=O)N2[C@H]1C(=O)O` [I, 6-(D-α-aminophenylacetamido)penicillanic acid], for which the MIC in assay [9] (Coliform strain 3/70) came out at 1.56 µg/mL; in assay [9] (Coliform strain 9/70), 3.12 µg/mL; in assay [9] (Coliform strain 10/70), 3.12 µg/mL; in assay [9] (Coliform strain 17/70), 3.12 µg/mL; in [10], 25 µg/mL; in assay [11] it was 50 µg/mL. The MIC in assay [11] (setting [20]) is 0.78 µg/mL; in [12] (Proteus strain 12/70) it was 100 µg/mL; in assay [12] (Proteus strain 13/70) it was 100 µg/mL; in [12] (Proteus strain 20/70), more than 100 µg/mL; in assay [2] (Proteus strain 4/70), 1.56 µg/mL; in [2] (setting [17]) it was 0.39 µg/mL. In addition, the MIC in assay [2] (Proteus strain 7/70) came to 1.56 µg/mL; in assay [2] (Proteus strain 9/70) it was 6.25 µg/mL; in assay [2] (Proteus strain 10/70), 1.56 µg/mL; in assay [3] (Klebsiella-Enterobacter strain 1/70), 50 µg/mL; in assay [3] (setting [18]), 25 µg/mL; in [3] (Klebsiella-Enterobacter strain 5/70), 100 µg/mL. Also, the MIC in [3] (Klebsiella-Enterobacter strain 7/70) was more than 100 µg/mL; in assay [3] (Klebsiella-Enterobacter strain 9/70), 50 µg/mL; in assay [3] (Klebsiella-Enterobacter strain 10/70) it was 50 µg/mL; in assay [3] (Klebsiella-Enterobacter strain 431) it was 100 µg/mL; in [5] (passage 0), 1.56 µg/mL; in assay [5] (passage 1), 6.25 µg/mL. Further, the MIC came to 25 µg/mL in [5] (passage 2); 50 µg/mL in assay [5] (passage 3); 50 µg/mL in [5] (passage 4); 100 µg/mL in assay [5] (passage 5); 100 µg/mL in assay [5] (passage 6); 12.5 µg/mL in assay [14] (passage 7). The MIC in assay [14] (passage 8) is 12.5 µg/mL; in assay [6] (Coliforma strain 1), 1.56 µg/mL; in assay [6] (Coliforma strain 4), 3.12 µg/mL; in [6] (Coliforma strain 7), 1.56 µg/mL; in [6] (Coliforma strain 13) it was 3.12 µg/mL; in assay [6] (Coliforma strain 16) it was 3.12 µg/mL. The MIC in assay [7] (Klebsiella-Enterobacter strain 1) is 50 µg/mL; in assay [7] (Klebsiella-Enterobacter strain 5), 100 µg/mL; in assay [7] (Klebsiella-Enterobacter strain 7) it was more than 100 µg/mL; in assay [7] (setting [19]), 25 µg/mL; in assay [8], 3.12 µg/mL. Further, the ED50 in assay [13] (setting [21]) stood at 5.5 mg/kg; in assay [13] (setting [22]), 250 mg/kg.
